IC50 data for 19 compounds are collected here from US12187713B2, “Immunomodulators, compositions and methods thereof” (Betta Pharmaceuticals Co., Ltd, priority 2019, dated 2025).

For orientation: IC50 means the concentration needed to halve the response being measured.

One experiment deals with PD-1/PD-L1 (Homo sapiens (Human), UniProt Q9NZQ7). The experiment in a line: PD-1/PD-L1 Binding Assay (Alphascreen). The conditions noted are these: numeric values. As to the method: PD-1/PD-L1 Binding Assay (Alphascreen)
PD-1/PD-L1, sequence (Q9NZQ7 19-238): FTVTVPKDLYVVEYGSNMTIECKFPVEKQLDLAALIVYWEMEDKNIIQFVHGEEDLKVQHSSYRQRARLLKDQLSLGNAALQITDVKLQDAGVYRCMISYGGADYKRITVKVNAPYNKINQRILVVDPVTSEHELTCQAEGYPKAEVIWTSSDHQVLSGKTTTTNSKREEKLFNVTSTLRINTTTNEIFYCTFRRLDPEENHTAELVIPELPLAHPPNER
The assays were conducted in a standard black 384-well polystyrene plate with a final volume of 20 μL. Inhibitors were first serially diluted in DMSO and then added to the plate wells before the addition of other reaction components. The final concentration of DMSO in the assay was […]. Add 100 nL/well of compound to the 384 reaction plate (6008280, PerkinElmer) with Echo and centrifuge at 1000 rpm for 1 minute. Add 5 μL/well 4×PD-L1 solutions to the 384 reaction plate, centrifuge at 1000 rpm for 1 minute, and add 5 μL/well 4×PD-1 solutions, centrifuge at 1000 rpm for 1 minute, and incubate at 25° C. for 15 minutes. The concentrations of the compounds were 300, 100, 33.33, 11.11, 3.70, 1.23, 0.41, 0.137, 0.046, 0.015, 0 nM, respectively. Add 10 μL/well 2× Anti-6×His AlphaLISA Acceptor beads and Streptavidin Donor beads solution (PerkinElmer-AL356F) to the above 384 reaction plate, centrifuge at 1000 rpm for 1 minute, and incubate at 25° C. in the dark for 120 minutes. Read the AlphaLISA signal value using the Envision Reader. IC50 determination was performed by fitting the curve of percent control activity versus the log of the inhibitor concentration using the GraphPad Prism 8.0 software.
For orientation: In Alpha technology, singlet oxygen from a donor bead excites a nearby acceptor bead.
`Cc1c(-c2nc3cc(CN4CCC[C@H]4C(=O)O)c(OC(F)F)cc3o2)cccc1-c1cccc(-c2nc3cc(CN4CCC45COC5)c(OC(F)F)cc3o2)c1C` [Example 39, ((2-(3′-(5-((6-oxa-1-azaspiro[3.3]heptan-1-yl)methyl)-6-(difluoromethoxy)benzo[d]oxazol-2-yl)-2,2′-dimethyl-[1,1′-biphenyl]-3-yl)-6-(difluoromethoxy)benzo[d]oxazol-5-yl)methyl)-L-proline] returned an IC50 of 2.4 nM. Regarding `Cc1c(-c2nc3cc(CN4CC(C)(O)C4)c(OC(F)F)cc3o2)cccc1-c1cccc(-c2nc3cc(CN4CCC[C@H]4C(=O)O)c(OC(F)F)cc3o2)c1C` [Example 44, ((6-(difluoromethoxy)-2-(3′-(6-(difluoromethoxy)-5-((3-hydroxy-3-methylazetidin-1-yl)methyl)benzo[d]oxazol-2-yl)-2,2′-dimethyl-[1,1′-biphenyl]-3-yl)benzo[d]oxazol-5-yl)methyl)-L-proline], the IC50 was determined as 1.1 nM. Still for that read-out and setting: under `Cc1c(-c2nc3cc(CN4CC5(C4)CS(=O)(=O)C5)c(OC(F)F)cc3o2)cccc1-c1cccc(-c2nc3cc(CN4CCC[C@H]4C(=O)O)c(OC(F)F)cc3o2)c1C` [Example 54, ((6-(difluoromethoxy)-2-(3′-(6-(difluoromethoxy)-5-((2,2-dioxido-2-thia-6-azaspiro [3.3]heptan-6-yl)methyl)benzo[d]oxazol-2-yl)-2,2′-dimethyl-[1,1′-biphenyl]-3-yl)benzo[d]oxazol-5-yl)methyl)-L-proline] stands 6.3 nM; under `Cc1c(-c2nc3cc(CN4CC5COCC5C4)c(OC(F)F)cc3o2)cccc1-c1cccc(-c2nc3cc(CN4CCC[C@H]4C(=O)O)c(OC(F)F)cc3o2)c1C` (stereo partly drawn) [Example 55, ((6-(difluoromethoxy)-2-(3′-(6-(difluoromethoxy)-5-((tetrahydro-1H-furo[3,4-c]pyrrol-5(3H)-yl)methyl)benzo[d]oxazol-2-yl)-2,2′-dimethyl-[1,1′-biphenyl]-3-yl)benzo[d]oxazol-5-yl)methyl)-L-proline], 0.57 nM; under `Cc1c(-c2nc3cc(CNCCCNCCO)c(OC(F)F)cc3o2)cccc1-c1cccc(-c2nc3cc(CN4CCC[C@H]4C(=O)O)c(OC(F)F)cc3o2)c1C` [Example 58, ((6-(difluoromethoxy)-2-(3′-(6-(difluoromethoxy)-5-(((3-((2-hydroxyethyl)amino)propyl)amino)methyl)benzo[d]oxazol-2-yl)-2,2′-dimethyl-[1,1′-biphenyl]-3-yl)benzo[d]oxazol-5-yl)methyl)-L-proline], 0.79 nM.

The compound `Cc1c(-c2nc3cc(CN(C)CCN(C)C)c(OC(F)F)cc3o2)cccc1-c1cccc(-c2nc3cc(CN4CCC[C@H]4C(=O)O)c(OC(F)F)cc3o2)c1C` [Example 59, ((6-(difluoromethoxy)-2-(3′-(6-(difluoromethoxy)-5-(((2-(dimethylamino)ethyl)(methyl)amino)methyl)benzo [d]oxazol-2-yl)-2,2′-dimethyl-[1,1′-biphenyl]-3-yl)benzo[d]oxazol-5-yl)methyl)-L-proline] yielded an IC50 of 2.5 nM.

Staying with this experiment, now noted: range symbols.
In turn, `Cc1c(-c2nc3cc(CN4CCC[C@H]4C(=O)O)c(OC(F)F)cc3o2)cccc1-c1cccc(-c2nc3cc(CN4CCC4(C)N)c(OC(F)F)cc3o2)c1C` (stereo partly drawn) [Example 40, ((2-(3′-(5-((2-amino-2-methylazetidin-1-yl)methyl)-6-(difluoromethoxy)benzo[d]oxazol-2-yl)-2,2′-dimethyl-[1,1′-biphenyl]-3-yl)-6-(difluoromethoxy)benzo[d]oxazol-5-yl)methyl)-L-proline] registered an IC50 of 0.1 to 5 nM. On the same count and under the same terms, in the case of `Cc1c(-c2nc3cc(CN4CC(S(C)(=O)=O)C4)c(OC(F)F)cc3o2)cccc1-c1cccc(-c2nc3cc(CN4CCC[C@H]4C(=O)O)c(OC(F)F)cc3o2)c1C` [Example 41, ((6-(difluoromethoxy)-2-(3′-(6-(difluoromethoxy)-5-((3-(methylsulfonyl)azetidin-1-yl)methyl)benzo[d]oxazol-2-yl)-2,2′-dimethyl-[1,1′-biphenyl]-3-yl)benzo[d]oxazol-5-yl)methyl)-L-proline] it was 5 to 50 nM. `CC[C@@H]1CCN1Cc1cc2nc(-c3cccc(-c4cccc(-c5nc6cc(CN7CCC[C@H]7C(=O)O)c(OC(F)F)cc6o5)c4C)c3C)oc2cc1OC(F)F` [Example 42, ((6-(difluoromethoxy)-2-(3′-(6-(difluoromethoxy)-5-(((R)-2-ethylazetidin-1-yl)methyl)benzo[d]oxazol-2-yl)-2,2′-dimethyl-[1,1′-biphenyl]-3-yl)benzo[d]oxazol-5-yl)methyl)-L-proline] showed a 50% inhibitory concentration (IC50) of 0.1 to 5 nM.

On to `COC1CN(Cc2cc3nc(-c4cccc(-c5cccc(-c6nc7cc(CN8CCC[C@H]8C(=O)O)c(OC(F)F)cc7o6)c5C)c4C)oc3cc2OC(F)F)C1` [Example 43, ((6-(difluoromethoxy)-2-(3′-(6-(difluoromethoxy)-5-((3-methoxyazetidin-1-yl)methyl)benzo[d]oxazol-2-yl)-2,2′-dimethyl-[1,1′-biphenyl]-3-yl)benzo[d]oxazol-5-yl)methyl)-L-proline], for which the IC50 was in the range of 5 to 50 nM. Still for that read-out and setting: in the case of `CNCC1CN(Cc2cc3nc(-c4cccc(-c5cccc(-c6nc7cc(CN8CCC[C@H]8C(=O)O)c(OC(F)F)cc7o6)c5C)c4C)oc3cc2OC(F)F)C1` [Example 45, ((6-(difluoromethoxy)-2-(3′-(6-(difluoromethoxy)-5-((3-((methylamino)methyl)azetidin-1-yl)methyl)benzo[d]oxazol-2-yl)-2,2′-dimethyl-[1,1′-biphenyl]-3-yl)benzo[d]oxazol-5-yl)methyl)-L-proline] it was 0.1 to 5 nM; in that of `Cc1c(-c2nc3cc(CN4CC(=O)C4)c(OC(F)F)cc3o2)cccc1-c1cccc(-c2nc3cc(CN4CCC[C@H]4C(=O)O)c(OC(F)F)cc3o2)c1C` [Example 46, ((6-(difluoromethoxy)-2-(3′-(6-(difluoromethoxy)-5-((3-oxoazetidin-1-yl)methyl)benzo[d]oxazol-2-yl)-2,2′-dimethyl-[1,1′-biphenyl]-3-yl)benzo[d]oxazol-5-yl)methyl)-L-proline], 5 to 50 nM. Same read-out and setting: under `Cc1c(-c2nc3cc(CN4CC5(COC5)C4)c(OC(F)F)cc3o2)cccc1-c1cccc(-c2nc3cc(CN4CCC[C@H]4C(=O)O)c(OC(F)F)cc3o2)c1C` [Example 47, ((2-(3′-(5-((2-oxa-6-azaspiro[3.3]heptan-6-yl)methyl)-6-(difluoromethoxy)benzo[d]oxazol-2-yl)-2,2′-dimethyl-[1,1′-biphenyl]-3-yl)-6-(difluoromethoxy)benzo[d]oxazol-5-yl)methyl)-L-proline] stands 0.1 to 5 nM; under `Cc1c(-c2nc3cc(CN4CC5(CCC5)C4)c(OC(F)F)cc3o2)cccc1-c1cccc(-c2nc3cc(CN4CCC[C@H]4C(=O)O)c(OC(F)F)cc3o2)c1C` [Example 48, ((2-(3′-(5-((2-azaspiro [3.3]heptan-2-yl)methyl)-6-(difluoromethoxy)benzo[d]oxazol-2-yl)-2,2′-dimethyl-[1,1′-biphenyl]-3-yl)-6-(difluoromethoxy)benzo[d]oxazol-5-yl)methyl)-L-proline], 0.1 to 5 nM; under `Cc1c(-c2nc3cc(CN4CC5CCCC5C4)c(OC(F)F)cc3o2)cccc1-c1cccc(-c2nc3cc(CN4CCC[C@H]4C(=O)O)c(OC(F)F)cc3o2)c1C` (stereo partly drawn) [Example 49, ((6-(difluoromethoxy)-2-(3′-(6-(difluoromethoxy)-5-((hexahydrocyclopenta [c]pyrrol-2(1H)-yl)methyl)benzo[d]oxazol-2-yl)-2,2′-dimethyl-[1,1′-biphenyl]-3-yl)benzo[d]oxazol-5-yl)methyl)-L-proline], 0.1 to 5 nM. On to `Cc1c(-c2nc3cc(CN4CC5CNCC5C4)c(OC(F)F)cc3o2)cccc1-c1cccc(-c2nc3cc(CN4CCC[C@H]4C(=O)O)c(OC(F)F)cc3o2)c1C` (stereo partly drawn) [Example 50, ((6-(difluoromethoxy)-2-(3′-(6-(difluoromethoxy)-5-((hexahydropyrrolo [3,4-c]pyrrol-2(1H)-yl)methyl)benzo[d]oxazol-2-yl)-2,2′-dimethyl-[1,1′-biphenyl]-3-yl)benzo[d]oxazol-5-yl)methyl)-L-proline], for which the IC50 lay within 0.1 to 5 nM. The compound `Cc1c(-c2nc3cc(CN4CC5(CCNCC5)C4)c(OC(F)F)cc3o2)cccc1-c1cccc(-c2nc3cc(CN4CCC[C@H]4C(=O)O)c(OC(F)F)cc3o2)c1C` [Example 51, ((2-(3′-(5-((2,7-diazaspiro[3.5]nonan-2-yl)methyl)-6-(difluoromethoxy)benzo[d]oxazol-2-yl)-2,2′-dimethyl-[1,1′-biphenyl]-3-yl)-6-(difluoromethoxy)benzo[d]oxazol-5-yl)methyl)-L-proline] registered an IC50 of 0.1 to 5 nM. Compound `CCCNCCCNCc1cc2nc(-c3cccc(-c4cccc(-c5nc6cc(CN7CCC[C@H]7C(=O)O)c(OC(F)F)cc6o5)c4C)c3C)oc2cc1OC(F)F` [Example 52, ((6-(difluoromethoxy)-2-(3′-(6-(difluoromethoxy)-5-(((3-(propylamino)propyl)amino)methyl)benzo [d]oxazol-2-yl)-2,2′-dimethyl-[1,1′-biphenyl]-3-yl)benzo[d]oxazol-5-yl)methyl)-L-proline] returned an IC50 of 0.1 to 5 nM. Take `CCCNCCCN(C)Cc1cc2nc(-c3cccc(-c4cccc(-c5nc6cc(CN7CCC[C@H]7C(=O)O)c(OC(F)F)cc6o5)c4C)c3C)oc2cc1OC(F)F` [Example 53, ((6-(difluoromethoxy)-2-(3′-(6-(difluoromethoxy)-5-((methyl(3-(propylamino)propyl)amino)methyl)benzo [d]oxazol-2-yl)-2,2′-dimethyl-[1,1′-biphenyl]-3-yl)benzo[d]oxazol-5-yl)methyl)-L-proline]: the IC50 lay in the range of 0.1 to 5 nM.
